Data reported in patent US20250368700A1, “NOVEL PEPTIDE FOR TREATING AN INFECTIOUS DISEASE OR CONDITION” (OMNIX MEDICAL LTD., priority 2022, published 2025).
≈ marks a conversion by molar mass, not a printed value. Where two headings read alike, the source gives them in different places. Where a SMILES comes first, the peptide text is derived from it. Where no end group is shown, it is not given here. [ ]: non-standard residue; d: D form.

Tests used:
Hsd:ICR (CD-1) mice = assay: Safety of intra-nasal (IN) administration in mice (histopathology, mortality); type: in vivo; parameters: key to histopathological findings grade, Spleen / histopathological findings grade, Lungs / histopathological findings grade, Kidneys / histopathological findings grade, Heart / histopathological findings grade, Liver: Grade 0—The tissue appears normal, without any changes at all; Grade 1—Minimal pathological findings; Grade 2—Mild pathological findings; Grade 3—Moderate pathological findings; Grade 4—Severe pathological findings; conditions: 100 mg/kg IN
Method: Methods: Adverse effects of OMN71 on mice following intra-Nasal (IN) administration, safety was evaluated by tissue histopathology and mortality. 100 mg/kg of OMN71 in a total volume of 50 μl saline (0.9% NaCl) was administered intranasal (IN) to Hsd:ICR (CD-1) mice (20-25 g) in order to assess the presence any toxic effects. Control mice were administered with saline solution (0.9% NaCl) as vehicle. On the last time-point of each experiment (at T24h), mortality was assessed, the mice were sacrificed by IP injection of Ketamine-Xylazine and spleen, lungs, kidneys, heart and liver were collected for histopathology.
Slides of liver, heart, kidneys, lungs, and spleen were stained with Hematoxylin & Eosin (H&E) and were sent for evaluation. The H&E-stained slides were examined and pictures were taken using microscope equipped with a camera at objective magnification of ×4 and ×10.

[1] = test system: Pseudomonas aeruginosa ATCC ® BAA-2795 (MDR); type: cell-based
From the text: (§1) As bacterial growth progresses, OD625 nm values raised.

[2] = test system: Escherichia coli ATCC ® BAA-3048 (MDR); type: cell-based
From the text: as §1

[3] = test system: Klebsiella pneumoniae ATCC ® 700603 (Sens.); type: cell-based
From the text: as §1

[4] = test system: Escherichia coli ATCC ® BAA-2452 (NDM-1); type: cell-based
From the text: as §1

[5] = test system: Pseudomonas aeruginosa ATCC ® 27853 (Sens.); type: cell-based
From the text: as §1

[6] = test system: Pseudomonas aeruginosa ATCC ® BAA-2797 (MDR); type: cell-based
From the text: as §1

[7] = test system: Escherichia coli ATCC ® 25922 (Sens.); type: cell-based
From the text: as §1

[8] = test system: Klebsiella pneumoniae ATCC ® BAA-2146 (NDM-1); type: cell-based
From the text: as §1

[9] = test system: K. pneumoniae strain ATCC® 43816; type: cell-based
[10] = test system: K. pneumoniae strain ATCC® 43816; assay: Mouse lung infection model induced by K. pneumoniae, lung bacterial burden; type: in vivo; conditions: neutropenic CD-1 female mice, 100 mg/kg intranasal two hours post-infection, 24 hours
Method: Neutropenic CD-1 female mice were intratracheally inoculated with K. pneumoniae strain ATCC 43816 (75×10^3 CFU/mouse). Two hours post-inoculation, OMN71-treated group was administered by an intranasal injection of 100 mg/kg and the vehicle group was administered with 0.9% saline solution. Bacterial burden in the lungs was evaluated 24 hours post-infection. Control group of untreated mice n=2 (CTRL ▪), vehicle saline treated mice n=3 (vehicle ●), OMN71-treated group at 100 mg/kg n=3 (OMN71 100 mg/kg ▴).
Methods: Female CD-1 mice, weighing between 20-25 g were inoculated with K. pneumoniae bacteria to induce a lung infection. All animals were monitored during the entire period of the study and clinical signs were recorded. Briefly, eight animals were rendered neutropenic by two intraperitoneal injections of cyclophosphamide (Sigma-Aldrich, Italy) at 150 and 100 mg/kg, four and one day before the infection, respectively. […] The mice were anesthetized by IP injection of Ketamine-Xylazine at low dose and intratracheally inoculated with 50 μL of the bacterial suspension (75×10^3 CFU/mouse). Two hours post-infection (T2h), 100 mg/kg OMN71 in a total volume of 50 μl saline (0.9% NaCl) was administered intranasal. […] The mice were monitored during the entire study and scored for clinical signs of infection where no mortality or morbidity were observed.

Proteinase-K (ProtK) = Proteinase-K (ProtK) (Parengyodontium album, UniProt P06873); type: in vitro ADME; conditions: 2.5 μg protein, 2 hours at 37° C.
Method: Methods: Proteinase-K (ProtK) was used to assess the stability of OMN71 versus native OMN70 and Bovine Serum Albumin (BSA). 2.5 μg of each protein were incubated with increasing concentrations of 2.5 and 20 ng of ProtK as specified, for 2 hours at 37° C. Samples were boiled at 100° C. for five minutes and separated on 16.5% polyacrylamide gel. The gel was then stained with Coomassie Blue and excess dye was removed overnight.
Results: FIGS. 3A and 3B depict a Coomassie Blue stained gel detecting the following: FIG. 3A: Lanes 1, 2 and 3: […] of OMN70 subjected to 0/2.5/20 ng of Proteinase-K (ProtK), respectively. Lanes 4, 5 and 6: […] of OMN71 subjected to 0/2.5/20 ng of ProtK, respectively. FIG. 3B: Lanes 7, 8 and 9: […] of Bovine Serum Albumin (BSA) subjected to 0/2.5/20 ng of ProtK, respectively.

Sequence of Proteinase-K (ProtK) (P06873 106-384, species assumed): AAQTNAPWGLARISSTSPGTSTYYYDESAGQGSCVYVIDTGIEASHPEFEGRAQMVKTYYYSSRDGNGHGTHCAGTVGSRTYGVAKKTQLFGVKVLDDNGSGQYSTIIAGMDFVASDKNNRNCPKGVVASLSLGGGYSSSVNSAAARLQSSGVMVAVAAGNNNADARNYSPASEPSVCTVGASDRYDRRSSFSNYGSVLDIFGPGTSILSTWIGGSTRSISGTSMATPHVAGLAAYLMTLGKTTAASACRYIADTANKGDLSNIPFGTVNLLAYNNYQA

Molecule: CC(C)C[C@@H](NC(=O)[C@H](N)Cc1ccccc1)C(=O)N[C@H](CC(N)=O)C(=O)N[C@H](C)C(=O)N[C@H](CC(C)C)C(=O)N[C@H](CCCCN)C(=O)N[C@H](CC(N)=O)C(=O)N[C@H](Cc1ccccc1)C(=O)N[C@H](C)C(=O)N[C@H](CCCCN)C(=O)N[C@@H](C(=O)N[C@H](C)C(=O)NCC(=O)N[C@H](CCCCN)C(=O)N[C@H](CCCNC(=N)N)C(=O)N[C@H](CC(C)C)C(=O)N[C@H](CCCCN)C(=O)N[C@H](CO)C(=O)N[C@H](CC(C)C)C(=O)N[C@H](CC(C)C)C(=O)N[C@H](CC(N)=O)C(N)=O)[C@H](C)O [OMN71] (H-[dF][dL][dN][dA][dL][dK][dN][dF][dA][dK][dT][dA]G[dK][dR][dL][dK][dS][dL][dL][dN]-NH2; N-terminus assumed)
- histopathological findings grade, Heart (Hsd:ICR (CD-1) mice; T24 h): 0
- histopathological findings grade, Kidneys (Hsd:ICR (CD-1) mice; T24 h): 0
- histopathological findings grade, Liver (Hsd:ICR (CD-1) mice; T24 h): 0
- histopathological findings grade, Lungs (Hsd:ICR (CD-1) mice; T24 h): 0
- histopathological findings grade, Spleen (Hsd:ICR (CD-1) mice; T24 h): 0
- mortality (Hsd:ICR (CD-1) mice; at T24h): No mortality
- mortality or other adverse effects (Hsd:ICR (CD-1) mice; monitored for an additional week): no mortality or any other adverse effects
- MIC values [1]: 4 µg/mL (≈ 1.7 µM)
- MIC values [2]: 4 µg/mL (≈ 1.7 µM)
- MIC values [3]: 8 µg/mL (≈ 3.41 µM)
- MIC values [4]: 4 µg/mL (≈ 1.7 µM)
- MIC values [5]: 16 µg/mL (≈ 6.82 µM)
- MIC values [6]: 16 µg/mL (≈ 6.82 µM)
- MIC values [7]: 4 µg/mL (≈ 1.7 µM)
- MIC values [8]: 16 µg/mL (≈ 6.82 µM)
- MIC [9]: 4 µg/mL (≈ 1.7 µM)
- bacterial burden reduction compared to the vehicle-treated group [10]: ~1 log CFU/lungs

Molecule: CC(C)C[C@@H](NC(=O)[C@H](N)CC(N)=O)C(=O)N[C@H](CC(C)C)C(=O)N[C@H](CO)C(=O)N[C@H](CCCCN)C(=O)N[C@H](CC(C)C)C(=O)N[C@H](CCCNC(=N)N)C(=O)N[C@H](CCCCN)C(=O)NCC(=O)N[C@H](C)C(=O)N[C@@H](C(=O)N[C@H](CCCCN)C(=O)N[C@H](C)C(=O)N[C@H](Cc1ccccc1)C(=O)N[C@H](CC(N)=O)C(=O)N[C@H](CCCCN)C(=O)N[C@H](CC(C)C)C(=O)N[C@H](C)C(=O)N[C@H](CC(N)=O)C(=O)N[C@H](CC(C)C)C(=O)N[C@H](Cc1ccccc1)C(N)=O)[C@H](C)O [OMN72]
- MIC values [1]: 16 µg/mL (≈ 6.82 µM)
- MIC values [2]: 32 µg/mL (≈ 13.6 µM)
- MIC values [3]: 16 µg/mL (≈ 6.82 µM)
- MIC values [4]: 32 µg/mL (≈ 13.6 µM)
- MIC values [5]: 64 µg/mL (≈ 27.3 µM)
- MIC values [6]: 64 µg/mL (≈ 27.3 µM)
- MIC values [7]: 32 µg/mL (≈ 13.6 µM)
- MIC values [8]: 32 µg/mL (≈ 13.6 µM)

Molecule: Bovine Serum Albumin [BSA]
- degradation by ProtK (gel band) (Proteinase-K (ProtK); 2.5 ng ProtK): partially degrade
- degradation by ProtK (gel band) (Proteinase-K (ProtK); 20 ng ProtK): completely degrade

Molecule: FLNALKNFAKTAGKRLKSLLN-NH2 [OMN70, Cyanophlyctin, reference compound]
- MIC values [1]: 8 µg/mL
- MIC values [2]: 16 µg/mL
- MIC values [3]: 8 µg/mL
- MIC values [4]: 8 µg/mL
- MIC values [5]: 16 µg/mL
- MIC values [6]: 16 µg/mL
- MIC values [7]: 4 µg/mL
- MIC values [8]: 16 µg/mL
